Laboratory results: publication PMC7156458, “Synthetic biology based construction of biological activity-related library of fungal decalin-containing diterpenoid pyrones” (Nature Communications, 2020)

Molecular target: Aβ42 (Homo sapiens, UniProt P05067)
Experiment: Th-T (thioflavin-T) assay of Aβ42 aggregation
Assay type: biochemical
Conditions: for Th-T fluorescence, mean of three wells: Aβ42 aggregation time course

Sequence of Aβ42 (P05067 672-713): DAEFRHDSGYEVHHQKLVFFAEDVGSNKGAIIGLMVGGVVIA

C=C1CCC2C(C)(CCC=C(C)C)C(O)CCC2(C)C1Cc1c(OC)oc(CO)c(C(=O)OC)c1=O (centres unmarked) [Compound 13]
first Th-T assay result (Aβ42 (10 μM) ± DPPs (20 μM), room temperature): clearly delayed nuclei formation of Aβ42 | Th-T fluorescence, mean of three wells (reading M117): 1.0387 | Th-T fluorescence, mean of three wells (reading M118): 1.037 | Th-T fluorescence, mean of three wells (reading M119): 1.04 | Th-T fluorescence, mean of three wells (reading M120): 1.034 | Th-T fluorescence, mean of three wells (reading M121): 1.036 | Th-T fluorescence, mean of three wells (reading M122): 1.039 | Th-T fluorescence, mean of three wells (reading M123): 1.034 | Th-T fluorescence, mean of three wells (reading M124): 1.036 | Th-T fluorescence, mean of three wells (reading M125): 1.037 | Th-T fluorescence, mean of three wells (reading M126): 1.037 | Th-T fluorescence, mean of three wells (reading M127): 1.0394 | Th-T fluorescence, mean of three wells (reading M128): 1.038 | Th-T fluorescence, mean of three wells (reading M129): 1.038 | Th-T fluorescence, mean of three wells (reading M130): 1.033 | nucleation phase of Aβ42 delayed until (Th-T fluorescence of Aβ42 alone began to increase after 4 h): 6 h | Th-T fluorescence, mean of three wells (Fig. 7a) (column suffix _10, measurement M19): 0.2324 | Th-T fluorescence, mean of three wells (Fig. 7a) (column suffix _10, measurement M20): 0.2323 | Th-T fluorescence, mean of three wells (Fig. 7a) (column suffix _10, measurement M21): 0.2394 | Th-T fluorescence, mean of three wells (Fig. 7a) (column suffix _10, measurement M22): 0.2441 | Th-T fluorescence, mean of three wells (Fig. 7a) (column suffix _10, measurement M23): 0.249 | Th-T fluorescence, mean of three wells (Fig. 7a) (column suffix _10, measurement M24): 0.2631 | Th-T fluorescence, mean of three wells (Fig. 7a) (column suffix _10, measurement M25): 0.2779 | Th-T fluorescence, mean of three wells (Fig. 7a) (column suffix _10, measurement M26): 0.3045 | Th-T fluorescence, mean of three wells (Fig. 7a) (column suffix _10, measurement M27): 0.3354 | Th-T fluorescence, mean of three wells (Fig. 7a) (column suffix _10, measurement M28): 0.3683 | Th-T fluorescence, mean of three wells (Fig. 7a) (column suffix _10, measurement M29): 0.4093 | Th-T fluorescence, mean of three wells (Fig. 7a) (column suffix _10, measurement M30): 0.4628 | Th-T assay signal, mean of three wells (Fig. 7a) (column suffix _10, reading M1): 0.2437 | Th-T assay signal, mean of three wells (Fig. 7a) (column suffix _10, reading M2): 0.2496 | Th-T assay signal, mean of three wells (Fig. 7a) (column suffix _10, reading M3): 0.25 | Th-T assay signal, mean of three wells (Fig. 7a) (column suffix _10, reading M4): 0.2515 | Th-T assay signal, mean of three wells (Fig. 7a) (column suffix _10, reading M5): 0.2448 | Th-T assay signal, mean of three wells (Fig. 7a) (column suffix _10, reading M6): 0.2438 | Th-T assay signal, mean of three wells (Fig. 7a) (column suffix _10, reading M7): 0.2403 | Th-T assay signal, mean of three wells (Fig. 7a) (column suffix _10, reading M8): 0.2367 | Th-T assay signal, mean of three wells (Fig. 7a) (column suffix _10, reading M9): 0.231 | Th-T assay signal, mean of three wells (Fig. 7a) (column suffix _10, reading M10): 0.233 | Th-T assay signal, mean of three wells (Fig. 7a) (column suffix _10, reading M11): 0.2291 | Th-T assay signal, mean of three wells (Fig. 7a) (column suffix _10, reading M12): 0.2292 | Th-T assay signal, mean of three wells (Fig. 7a) (column suffix _10, reading M13): 0.2301 | Th-T assay signal, mean of three wells (Fig. 7a) (column suffix _10, reading M14): 0.2289 | Th-T assay signal, mean of three wells (Fig. 7a) (column suffix _10, reading M15): 0.2274 | Th-T assay signal, mean of three wells (Fig. 7a) (column suffix _10, reading M16): 0.2305 | Th-T assay signal, mean of three wells (Fig. 7a) (column suffix _10, reading M17): 0.2352 | Th-T assay signal, mean of three wells (Fig. 7a) (column suffix _10, reading M18): 0.231 | Fig. 7a Th-T reading, mean of three wells (column suffix _10, reading M85): 1.544 | Fig. 7a Th-T reading, mean of three wells (column suffix _10, reading M86): 1.5365 | Fig. 7a Th-T reading, mean of three wells (column suffix _10, reading M87): 1.543 | Fig. 7a Th-T reading, mean of three wells (column suffix _10, reading M88): 1.544 | Fig. 7a Th-T reading, mean of three wells (column suffix _10, reading M89): 1.563 | Fig. 7a Th-T reading, mean of three wells (column suffix _10, reading M90): 1.554 | Fig. 7a Th-T reading, mean of three wells (column suffix _10, reading M91): 1.5515 | Fig. 7a Th-T reading, mean of three wells (column suffix _10, reading M92): 1.553 | Fig. 7a Th-T reading, mean of three wells (column suffix _10, reading M93): 1.554 | Fig. 7a Th-T reading, mean of three wells (column suffix _10, reading M94): 1.561 | Fig. 7a Th-T reading, mean of three wells (column suffix _10, reading M95): 1.563 | Fig. 7a Th-T reading, mean of three wells (column suffix _10, reading M96): 1.547 | Fig. 7a Th-T reading, mean of three wells (column suffix _10, reading M97): 1.551 | Fig. 7a Th-T reading, mean of three wells (column suffix _10, reading M98): 1.554 | Fig. 7a Th-T reading, mean of three wells (column suffix _10, reading M99): 1.551 | Fig. 7a Th-T reading, mean of three wells (column suffix _10, reading M100): 1.555 | Fig. 7a Th-T reading, mean of three wells (column suffix _10, reading M101): 1.545 | Fig. 7a Th-T reading, mean of three wells (column suffix _10, reading M102): 1.552 | Fig. 7a Th-T reading, mean of three wells (column suffix _10, reading M103): 1.542 | Fig. 7a Th-T reading, mean of three wells (column suffix _10, reading M104): 1.5457 | Fig. 7a Th-T reading, mean of three wells (column suffix _10, reading M105): 1.553 | Fig. 7a Th-T reading, mean of three wells (column suffix _10, reading M106): 1.551 | Th-T fluorescence, mean of three wells (Fig. 7a) (column suffix _20, measurement M19): 0.1811 | Th-T fluorescence, mean of three wells (Fig. 7a) (column suffix _20, measurement M20): 0.1836 | Th-T fluorescence, mean of three wells (Fig. 7a) (column suffix _20, measurement M21): 0.1846 | Th-T fluorescence, mean of three wells (Fig. 7a) (column suffix _20, measurement M22): 0.1853 | Th-T fluorescence, mean of three wells (Fig. 7a) (column suffix _20, measurement M23): 0.1827 | Th-T fluorescence, mean of three wells (Fig. 7a) (column suffix _20, measurement M24): 0.1835 | Th-T fluorescence, mean of three wells (Fig. 7a) (column suffix _20, measurement M25): 0.1855 | Th-T fluorescence, mean of three wells (Fig. 7a) (column suffix _20, measurement M26): 0.1899 | Th-T fluorescence, mean of three wells (Fig. 7a) (column suffix _20, measurement M27): 0.1923 | Th-T fluorescence, mean of three wells (Fig. 7a) (column suffix _20, measurement M28): 0.1912 | Th-T fluorescence, mean of three wells (Fig. 7a) (column suffix _20, measurement M29): 0.1931 | Th-T assay signal, mean of three wells (Fig. 7a) (column suffix _20, reading M1): 0.2486 | Th-T assay signal, mean of three wells (Fig. 7a) (column suffix _20, reading M2): 0.2414 | Th-T assay signal, mean of three wells (Fig. 7a) (column suffix _20, reading M3): 0.2279 | Th-T assay signal, mean of three wells (Fig. 7a) (column suffix _20, reading M4): 0.2173 | Th-T assay signal, mean of three wells (Fig. 7a) (column suffix _20, reading M5): 0.206 | Th-T assay signal, mean of three wells (Fig. 7a) (column suffix _20, reading M6): 0.2044 | Th-T assay signal, mean of three wells (Fig. 7a) (column suffix _20, reading M7): 0.2009 | Th-T assay signal, mean of three wells (Fig. 7a) (column suffix _20, reading M8): 0.1963 | Th-T assay signal, mean of three wells (Fig. 7a) (column suffix _20, reading M9): 0.1897 | Th-T assay signal, mean of three wells (Fig. 7a) (column suffix _20, reading M10): 0.1909 | Th-T assay signal, mean of three wells (Fig. 7a) (column suffix _20, reading M11): 0.1894 | Th-T assay signal, mean of three wells (Fig. 7a) (column suffix _20, reading M12): 0.1902 | Th-T assay signal, mean of three wells (Fig. 7a) (column suffix _20, reading M13): 0.1854 | Th-T assay signal, mean of three wells (Fig. 7a) (column suffix _20, reading M14): 0.184 | Th-T assay signal, mean of three wells (Fig. 7a) (column suffix _20, reading M15): 0.1861 | Th-T assay signal, mean of three wells (Fig. 7a) (column suffix _20, reading M16): 0.1835 | Th-T assay signal, mean of three wells (Fig. 7a) (column suffix _20, reading M17): 0.1852 | Th-T assay signal, mean of three wells (Fig. 7a) (column suffix _20, reading M18): 0.1827 | Fig. 7a Th-T reading, mean of three wells (column suffix _20, reading M85): 1.042 | Fig. 7a Th-T reading, mean of three wells (column suffix _20, reading M86): 1.037 | Fig. 7a Th-T reading, mean of three wells (column suffix _20, reading M87): 1.045 | Fig. 7a Th-T reading, mean of three wells (column suffix _20, reading M88): 1.0511 | Fig. 7a Th-T reading, mean of three wells (column suffix _20, reading M89): 1.059 | Fig. 7a Th-T reading, mean of three wells (column suffix _20, reading M90): 1.054 | Fig. 7a Th-T reading, mean of three wells (column suffix _20, reading M91): 1.0453 | Fig. 7a Th-T reading, mean of three wells (column suffix _20, reading M92): 1.043 | Fig. 7a Th-T reading, mean of three wells (column suffix _20, reading M93): 1.047 | Fig. 7a Th-T reading, mean of three wells (column suffix _20, reading M94): 1.054 | Fig. 7a Th-T reading, mean of three wells (column suffix _20, reading M95): 1.054 | Fig. 7a Th-T reading, mean of three wells (column suffix _20, reading M96): 1.04 | Fig. 7a Th-T reading, mean of three wells (column suffix _20, reading M97): 1.041 | Fig. 7a Th-T reading, mean of three wells (column suffix _20, reading M98): 1.046 | Fig. 7a Th-T reading, mean of three wells (column suffix _20, reading M99): 1.051 | Fig. 7a Th-T reading, mean of three wells (column suffix _20, reading M100): 1.05
